The values that follow come from patent publication US9796700B2 (Celgene CAR LLC, priority 2013, dated 2017).

Assay [1] addresses MEK1 activated ERK1 (Homo sapiens (Human), UniProt P27361). Description: Omnia continuous-read kinase assay for potency against MEK1 activated ERK1. Format: biochemical. The note with it: MEK1 activated ERK1, WT, ATP at KM. The essentials: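 Apparent IC50 came from initial reaction slopes (RFU vs time) plotted against log inhibitor with a variable-slope fit. Reactions were started with ERK1 (4 nM final) added to 50 μM ATP, roughly at its appKM, and 10 μM Sox-conjugated ST17 peptide in 20 mM Tris pH 7.5, 5 mM MgCl2. Fluorescence was monitored every 71 seconds.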

The target in assay [2] is Erk1 (Homo sapiens (Human), UniProt P27361). Kind of assay: Protein Mass Modification Assay (intact protein MALDI). Format: binding. The gist of the method: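 Human Erk1 was incubated 60 min at room temperature with a 10-fold molar excess of compound, then analysed as intact protein by MALDI with sinapinic acid matrix. The centroid mass shift versus untreated protein was divided by compound molecular weight to give percent modified protein.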

Each structure is given as a SMILES string. pIC50: −log10 of the molar value. Where only a bound is given, the exact number is not on record here.

Sequence of MEK1 activated ERK1 (P27361 whole entry): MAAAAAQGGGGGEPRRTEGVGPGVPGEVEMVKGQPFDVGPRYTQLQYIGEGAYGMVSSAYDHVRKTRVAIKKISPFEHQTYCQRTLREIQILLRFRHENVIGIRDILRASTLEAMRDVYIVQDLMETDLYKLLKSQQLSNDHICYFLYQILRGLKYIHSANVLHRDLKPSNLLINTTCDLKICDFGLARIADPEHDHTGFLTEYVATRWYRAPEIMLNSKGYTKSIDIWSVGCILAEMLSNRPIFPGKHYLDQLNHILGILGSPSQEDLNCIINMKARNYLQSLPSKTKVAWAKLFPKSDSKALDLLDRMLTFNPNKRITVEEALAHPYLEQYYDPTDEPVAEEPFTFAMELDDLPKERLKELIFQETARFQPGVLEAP
Sequence of Erk1 (P27361 whole entry, looked up): as the sequence (P27361 whole entry) above

In the case of `C=CC(=O)Nc1cc(OC)ccc1Oc1nc(Nc2ccc(N3CCC[C@H]3C(N)=O)cc2OC)ncc1C(N)=O` [Compound I-265, (S)-4-(2-acrylamido-4-methoxyphenoxy)-2-((4-(2-carbamoylpyrrolidin-1-yl)-2-methoxyphenyl)amino)pyrimidine-5-carboxamide], the pIC50 in assay [1] was below 6.00. Moreover, the “ERK1 Mass Mod (%)” value in assay [2] is recorded as “F (provided a mass modification of 31-69%)”.

`CC(C)=CC(=O)c1ccccc1Oc1nc(Nc2cc(C(N)=O)ccc2C)ncc1C(N)=O` [Compound I-271, 2-((5-carbamoyl-2-methylphenyl)amino)-4-(2-(3-methylbut-2-enoyl)phenoxy)pyrimidine-5-carboxamide]: the pIC50 in assay [1] is below 6.00. Further, the “ERK1 Mass Mod (%)” value in assay [2] is “G (proived a mass modification ≦30%)”.

For the compound `CN(C)CCC(=O)Nc1ccccc1Nc1nc(N[C@H]2CCCN(C(=O)CO)C2)ncc1C(F)(F)F` [Compound I-276, (S)-3-(dimethylamino)-N-(2-((2-((1-(2-hydroxyacetyl)piperidin-3-yl)amino)-5-(trifluoromethyl)pyrimidin-4-yl)amino)phenyl)propanamide], the negative-log IC50 (pIC50) in assay [1] was below 6.00. Further, the “ERK1 Mass Mod (%)” value in assay [2] is “G (proived a mass modification ≦30%)”.

For the compound `C=CC(=O)Nc1cc(C)ccc1Nc1nc(N[C@H]2CCCN(S(=O)(=O)C=C)C2)ncc1C(F)(F)F` [Compound I-277, (S)—N-(5-Methyl-2-((5-(trifluoromethyl)-2-((1-(vinylsulfonyl)piperidin-3-yl)amino)pyrimidin-4-yl)amino)phenyl)acrylamide], the pIC50 in assay [1] was below 6.00. In addition, the “ERK1 Mass Mod (%)” value in assay [2] is “E (provided a mass modification of ≧70%)”.

As to `C=CC(=O)Nc1cc(C)ccc1Nc1nc(N[C@@H]2CCCN(S(=O)(=O)C=C)C2)ncc1C(F)(F)F` [Compound I-278, (R)—N-(5-Methyl-2-((5-(trifluoromethyl)-2-((1-(vinylsulfonyl)piperidin-3-yl)amino)pyrimidin-4-yl)amino)phenyl)acrylamide], the pIC50 in assay [1] was below 6.00. In addition, the “ERK1 Mass Mod (%)” value in assay [2] was “F (provided a mass modification of 31-69%)”.

In the case of `C=CC(=O)Nc1cc(C)ccc1Nc1nc(N[C@@H]2CCN(S(=O)(=O)C=C)C2)ncc1C(F)(F)F` [Compound I-280, (R)—N-(5-Methyl-2-((5-(trifluoromethyl)-2-((1-(vinylsulfonyl)pyrrolidin-3-yl)amino)pyrimidin-4-yl)amino)phenyl)acrylamide], in assay [1], the pIC50 is below 6.00. Besides, the “ERK1 Mass Mod (%)” value in assay [2] was “E (provided a mass modification of ≧70%)”.

`C=CC(=O)Nc1ccccc1Nc1nc(Nc2cc(OC)nc(N3CCCC3)c2)ncc1C(F)(F)F` [Compound I-281, N-(2-((2-((2-Methoxy-6-(pyrrolidin-1-yl)pyridin-4-yl)amino)-5-(trifluoromethyl)pyrimidin-4-yl)amino)phenyl)acrylamide]: in assay [1], the pIC50 is above 7.00. The “ERK1 Mass Mod (%)” value in assay [2] is recorded as “E (provided a mass modification of ≧70%)”.

Turning to `C=CC(=O)Nc1ccccc1Nc1nc(Nc2cc(OC)nc(OCCOC)c2)ncc1C(F)(F)F` [Compound I-283, N-(2-((2-((2-Methoxy-6-(2-methoxyethoxy)pyridin-4-yl)amino)-5-(trifluoromethyl)pyrimidin-4-yl)amino)phenyl)acrylamide], in assay [1], the pIC50 is above 7.00. The “ERK1 Mass Mod (%)” value in assay [2] is “E (provided a mass modification of ≧70%)”.

Consider `C=CC(=O)Nc1cc(OC)ccc1Nc1nc(Nc2cc(OC)ncc2C)ncc1C(F)(F)F` [Compound I-284, N-(5-Methoxy-2-((2-((2-methoxy-5-methylpyridin-4-yl)amino)-5-(trifluoromethyl)pyrimidin-4-yl)amino)phenyl)acrylamide], for which the negative-log IC50 (pIC50) in assay [1] was above 7.00. Further, the “ERK1 Mass Mod (%)” value in assay [2] was “E (provided a mass modification of ≧70%)”.

`C=CC(=O)Nc1ccccc1Nc1nc(Nc2cc(NCCOC)nc(OC)c2)ncc1C(F)(F)F` [Compound I-286, N-(2-((2-((2-Methoxy-6-((2-methoxyethyl)amino)pyridin-4-yl)amino)-5-(trifluoromethyl)pyrimidin-4-yl)amino)phenyl)acrylamide]: the pIC50 in assay [1] was above 7.00. Further, in assay [2], the “ERK1 Mass Mod (%)” value is “E (provided a mass modification of ≧70%)”.

Take `C=CC(=O)Nc1cc(Cl)ccc1Nc1nc(Nc2cc(OC)ncc2C)ncc1C(F)(F)F` [Compound I-289, N-(5-Chloro-2-((2-((2-methoxy-5-methylpyridin-4-yl)amino)-5-(trifluoromethyl)pyrimidin-4-yl)amino)phenyl)acrylamide]: in assay [1], the pIC50 was above 7.00. Also, the “ERK1 Mass Mod (%)” value in assay [2] was “E (provided a mass modification of ≧70%)”.

As for `C=CC(=O)Nc1ccccc1Nc1nc(Nc2cc(OC)nc(N3CCN(S(C)(=O)=O)CC3)c2)ncc1C(F)(F)F` [Compound I-290, N-(2-((2-((2-Methoxy-6-(4-(methylsulfonyl)piperazin-1-yl)pyridin-4-yl)amino)-5-(trifluoromethyl)pyrimidin-4-yl)amino)phenyl)acrylamide], in assay [1], the pIC50 is below 6.00. Besides, the “ERK1 Mass Mod (%)” value in assay [2] was “E (provided a mass modification of ≧70%)”.

As for `C=CC(=O)Nc1ccccc1Nc1nc(Nc2cc(OC)nc(N3CCS(=O)(=O)CC3)c2)ncc1C(F)(F)F` [Compound I-291, N-(2-((2-((2-(1,1-Dioxidothiomorpholino)-6-methoxypyridin-4-yl)amino)-5-(trifluoromethyl)pyrimidin-4-yl)amino)phenyl)acrylamide], the pIC50 in assay [1] is above 7.00. Moreover, the “ERK1 Mass Mod (%)” value in assay [2] is on record as “E (provided a mass modification of ≧70%)”.

Consider `C=CC(=O)Nc1cc(C)ccc1Nc1nc(Nc2cc(OC)nc(N3CCN(C(C)=O)CC3)c2)ncc1Cl` [Compound I-296, N-(2-((2-((2-(4-acetylpiperazin-1-yl)-6-methoxypyridin-4-yl)amino)-5-chloropyrimidin-4-yl)amino)-5-methylphenyl)acrylamide], for which the negative-log IC50 (pIC50) in assay [1] is above 7.00. Besides, the “ERK1 Mass Mod (%)” value in assay [2] was “E (provided a mass modification of ≧70%)”.

As to `C=CC(=O)Nc1cc(OC)ccc1Nc1nc(Nc2cc(OC)nc(N3CCN(C(C)=O)CC3)c2)ncc1Cl` [Compound I-297, N-(2-((2-((2-(4-acetylpiperazin-1-yl)-6-methoxypyridin-4-yl)amino)-5-chloropyrimidin-4-yl)amino)-5-methoxyphenyl)acrylamide], the pIC50 in assay [1] was above 7.00. Moreover, the “ERK1 Mass Mod (%)” value in assay [2] is recorded as “E (provided a mass modification of ≧70%)”.

For `C=CC(=O)Nc1cccc(Nc2nc(Nc3ccc(N4CCN(C(C)=O)CC4)cc3OC)ncc2Cl)c1` [Compound I-298, N-(3-((2-((4-(4-acetylpiperazin-1-yl)-2-methoxyphenyl)amino)-5-chloropyrimidin-4-yl)amino)phenyl)acrylamide], the pIC50 in assay [1] is below 6.00. Moreover, in assay [2], the “ERK1 Mass Mod (%)” value is given as “G (proived a mass modification ≦30%)”.

Turning to `C=CC(=O)Nc1ccccc1Nc1nc(Nc2ccc(OCCCNC(=O)CCCC(=O)NCCCOCCOCCOCCCNC(=O)CCCC[C@H]3SC[C@H]4NC(=O)N[C@H]43)cc2OC)ncc1Cl` [Compound I-302, N^1-(3-(4-((4-((2-acrylamidophenyl)amino)-5-chloropyrimidin-2-yl)amino)-3-methoxyphenoxy)propyl)-N^5-(15-oxo-19-((3aR,4R,6aS)-2-oxohexahydro-1H-thieno[3,4-d]imidazol-4-yl)-4,7,10-trioxa-14-azanonadecyl)glutaramide], the pIC50 in assay [1] is below 6.00. For the same compound, in assay [2], the “ERK1 Mass Mod (%)” value is recorded as “E (provided a mass modification of ≧70%)”.
